# Measurements reported in the METLIN SMRT retention time set (Domingo-Almenara et al. 2019).
# Experiment: gradient 5% acetonitrile 3 min, to 50% in 2 min, to 85% in 15 min, held 3 min, 100 µL/min
# Conditions: column: Zorbax Extend-C18 2.1 x 50 mm; eluents: water / acetonitrile, 0.1% formic acid
# How it was run: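 Retention time was recorded from adduct peaks, which were picked computationally and each inspected manually. Pure standards ran in mixtures of ~100 molecules on HPLC coupled to a quadrupole time-of-flight mass spectrometer, in positive and negative ionization mode, through a Zorbax Extend-C18 column (2.1 × 50 mm, 1.8 μm) at 100 μL/min. Eluents were water and acetonitrile, each with 0.1% formic acid.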
row,Structure (SMILES),RP-LC retention time [s]
1,COc1cc(NC(=O)N2CCC(CN3CCc4ccccc4C3)CC2)cc(OC)c1OC,612
2,CCOC(=O)CC(=O)CSc1ncnc2c1cnn2-c1ccc(F)cc1,985
3,CNC(=O)c1ccc(-n2c(C)ccc2C)nc1,697
4,Cc1ccc(C(=O)N2CCCC2c2nc(-c3ccc(F)cc3F)no2)s1 (centres undefined),1010
5,Cc1ccc(-n2nc(N3CCN(C(=O)Nc4ccc(F)cc4F)CC3)ccc2=O)cc1,781
6,CCCNC(=O)C1CCN(c2ccc(SCC(=O)Nc3cccc(C(C)C)c3)nn2)CC1,728
7,Cc1nc(Nc2ccccn2)sc1C(=O)N1CCc2ccccc2C1,829
8,O=C(c1ccc(Cl)cc1)N1CCN(c2nc(CN3CCCCC3)cs2)CC1,808
9,Cc1ccc2cccc(Oc3ncnc(N)c3[N+](=O)[O-])c2n1,623
10,Cc1cc(NC(=O)C2CCN(C(=O)c3nc4ccccc4s3)CC2)no1,746
11,CCOC(=O)C1=C(CNc2ccc(F)cc2F)NC(=O)NC1c1ccccc1 (centres undefined),886
12,CCCCOc1cccc(C(=O)N(Cc2ccc(C)o2)C2CCS(=O)(=O)C2)c1 (centres undefined),1030
13,CCC(C)NC(=O)C1CCN(S(=O)(=O)c2ccc3c(c2)CCCC(=O)N3)CC1 (centres undefined),682
14,O=S(=O)(c1ccc(-c2noc(-c3ccccc3F)n2)cc1)N1CCCC1,1100
15,C=CCN(C(=O)C1CCCN(c2ncnc3c2nc2n3CCCCC2)C1)c1ccccc1 (centres undefined),864
16,CN(c1nccn2c(=O)n(CC(=O)Nc3ccc(F)cc3F)nc12)C1CCCCC1,902
17,O=C(NCc1ccccc1F)c1ccc2c(c1)CN(Cc1cccc(F)c1)CCO2,675
18,O=C(Cn1nc(Cc2cccnc2)c2ccccc2c1=O)Nc1ccc(Cl)cn1,608
19,COc1ccc(-c2noc(CN3C(=O)COc4ccc(Cl)cc43)n2)cc1,1050
20,COc1ccc(CC(=O)NCc2c(C)cc(C)nc2-c2ccc(OC)cc2)cc1,708
21,Cc1ccc(CNC(=O)CN2C(=O)NC3(CCCCC3)C2=O)cc1,774
22,CN(C)c1cccc(C(=O)Nc2cc(-c3cccnc3)no2)c1,728
23,CC(C)C(=O)N1CCc2[nH]nc(C(=O)NCCCc3ccccc3)c2C1,756

row,Structure (SMILES),RP-LC retention time [s]
1,COC(=O)c1cc2c(=O)n(-c3ccc(Cl)cc3Cl)ccc2nc1C,928
2,Cc1cc(C)c(C)c(S(=O)(=O)NCCc2cn(CC(C)C)c3ncccc23)c1C,1120
3,Cn1nccc1C(=O)N1CCCC1c1ccccc1Cl (centres undefined),823
4,CCCCNC(=O)C(C)n1nc(C)c2nn(-c3ccccc3)c(C)c2c1=O (centres undefined),864
5,O=C(COc1ccc2c(c1)OCO2)N1CCN(c2cc(N3CCCCC3)ncn2)CC1,587
6,Cc1cc(C(=O)N2CC3CC(C2)c2cccc(=O)n2C3)c(C)o1 (centres undefined),590
7,CCN1CCN(CCNC(=O)CN2C(=O)CSc3cccn3-c3ccccc32)CC1,600
8,COc1cc(-c2nc3ncccn3c2NC2CCCC2)cc(OC)c1OC,705
9,O=C(NCCc1ccccc1)NCCc1ccsc1,764
10,COCCCNC(=O)N1CCN(Cc2nc3cc(C(=O)N(C)C)ccc3n2C)CC1,560
11,O=C(Cc1ccsc1)N1CCC(c2noc(C3CC3)n2)C1 (centres undefined),734
12,Cc1ccc(Cl)cc1NC(=O)N1CCC(c2nc(C(=O)N3CCCC3)c(C)o2)CC1,858
13,CC(C)NC(=O)c1ccc(OCC2CCCN2C(=O)c2ccc(C(F)(F)F)cc2)cc1 (centres undefined),914
14,CC(NC(=O)C1CCCN(c2ccc(=O)n(-c3cccc(F)c3)n2)C1)c1ccccc1 (centres undefined),868
15,Cc1nnc2ccc(S(=O)(=O)Nc3cccc(Cl)c3)cn12,724
16,CC(C)c1csc(-c2csc(S(=O)(=O)Nc3ccc(F)c(F)c3)c2)n1,1120
17,COC(=O)c1ccc2c(=O)n(Cc3ccc(F)cc3)c(N3CCCC3)nc2c1,1060
18,Cc1nc(-c2ccccc2)nc2c1CCC(=O)N2Cc1cccs1,1120
19,Cc1ccc(Cn2c(=O)n(CCNC(=O)c3ccc4c(c3)OCO4)c3ncccc32)cc1,824
20,COC[C@@H]1CN(S(=O)(=O)c2ccc(F)cc2)C[C@H]1c1nc(C)no1,858
21,O=c1c2oc3ccccc3c2ncn1Cc1nc(-c2ccc(OC(F)(F)F)cc2)no1,1050
22,CCCNC(=O)C1CCCN(c2ccc(SCC(=O)Nc3ccc(C)c(F)c3)nn2)C1 (centres undefined),718
23,Cc1ccc(S(=O)(=O)N(C)C)cc1-c1nnc(-c2ccccc2Cl)o1,1010

row,Structure (SMILES),RP-LC retention time [s]
1,COc1ccc(-c2noc(C3CC(=O)N(c4ccc(C)c(Cl)c4)C3)n2)c(OC)c1 (centres undefined),982
2,CCn1cnc2cc(-c3noc(C4CC(=O)N(c5ccc(C)c(C)c5)C4)n3)ccc21 (centres undefined),734
3,O=C(NCCCc1ccccc1)C1CCN(C(=O)c2ncn3c2COC(c2ccc(F)cc2)C3)CC1 (centres undefined),818
4,Cc1ccc(-c2ncccc2CNC(=O)c2ccc3c(c2)OCO3)cc1,646
5,Cc1ccccc1Nc1c(-c2ccccc2)nc2ccc(Cl)cn12,869
6,O=C(NC(Cc1ccccc1)c1nnc(N2CCCCCC2)o1)C1CC1 (centres undefined),788
7,CCCn1c(=O)c(C)nc2cc(-c3noc(-c4ccc(Br)o4)n3)ccc21,1160
8,O=C(NCc1cscn1)C1CCN(S(=O)(=O)c2cccc(C(F)(F)F)c2)CC1,787
9,COc1ccc(N2CCN(C(=O)c3ccc(S(=O)(=O)N4CCCC4)cc3)CC2)nn1,579
10,Cc1cc(OC(C)C(=O)N[C@H](C(=O)O)C(C)C)c2c3c(c(=O)oc2c1)CCCC3 (some centres undefined),865
11,Cc1ccccc1Nc1c(-c2cc(Br)ccc2F)nc2ccc(Br)cn12,1120
12,O=C(CCn1cnc2cc(-c3noc(-c4ccc5c(c4)OCO5)n3)ccc21)N1CCCC1,727
13,O=C(c1ccc2[nH]ccc2c1)N1CCN(c2cc(-c3ccccc3)[nH]n2)CC1,728
14,O=C(NCc1ccccc1)N1CC(Oc2cccc(-c3nc(-c4ccccc4)no3)c2)C1,1130
15,Cn1c(=O)n(C)c2cc(S(=O)(=O)C3CCCCC3)c(NC(=O)c3ccccc3F)cc21,940
16,CCOC(=O)C1CCCN(S(=O)(=O)c2cc(-c3nc(C)c(C)s3)sc2C)C1 (centres undefined),1170
17,COC(=O)c1c(C)[nH]c(C(=O)N2CCC(CC(=O)N3CCCC3)CC2)c1C,628
18,COc1cccc(-c2ccc(=O)n(Cc3nc(-c4ccc(OC)c(OC)c4)no3)n2)c1,887
19,O=C1COc2cc(S(=O)(=O)N3CCCC3C(=O)NCc3ccccc3)c(Cl)cc2N1 (centres undefined),718
20,Cc1cc2nn(CC(=O)N(C)C3CCCCC3)c(=O)n2c(Nc2ccccc2C)n1,1110
21,CCn1cnc2c1CN(S(=O)(=O)c1cccc(C#N)c1)CC2,590
22,CCCn1cnc2cc(CNC(=O)Cc3cccc(Cl)c3)ccc21,670
23,O=C(NCCN1CCN(C(=O)Cn2ccc3ccccc32)CC1)c1cccs1,572

row,Structure (SMILES),RP-LC retention time [s]
1,COc1cccc(NC(=O)c2c[nH]c3nc(C)ccc3c2=O)c1,791
2,CO[C@H]1C(=O)N(C(C)C)[C@H]1C1CCN(C(=O)c2cnn(C)c2)CC1,612
3,O=C(CN1CCCC(COCc2ccccc2)C1)Nc1nccs1 (centres undefined),570
4,O=C(N[C@H]1C[C@@H]2C[C@H]1CN2S(=O)(=O)c1cccnc1)c1ccccc1,697
5,Clc1ccc(-c2nc(NCc3cccs3)c3ccccc3n2)cc1,842
6,CCCCC(=O)N1CCc2c(c(C(=O)NCc3ccc4c(c3)OCO4)nn2C)C1,767
7,CS(=O)(=O)N1CCC(C(=O)NCCC2=CCCCC2)Oc2ccc(Cl)cc21 (centres undefined),1020
8,Cc1nc(-c2ccncc2)cc2nn(CC(=O)Nc3ccc(F)c(Cl)c3)c(=O)n12,679
9,O=C(Cn1cc(-c2nc(-c3ccc(Cl)cc3)no2)ccc1=O)NC1CCCC1,928
10,CC(C)(C)NC(=O)N1CCCCC1c1nncn1-c1ccccc1 (centres undefined),712
11,CCn1cc(S(=O)(=O)N2CCCC(c3nnnn3-c3ccccc3)C2)cn1 (centres undefined),807
12,COC(=O)c1ncoc1-c1ccccc1C(=O)N1CCCC1,643
13,COCc1nc(CCNC(=O)NCC(C)C)no1,626
14,Cc1ccccc1Cn1c(CNC(=O)Cc2ccccc2)nc2ccccc21,645
15,CCOc1ccc(NC(=O)C2CCCN2S(=O)(=O)c2cc3c(cc2C)NC(=O)CO3)cc1 (centres undefined),770
16,CCc1ccc(NC(=O)N2CCc3nc(-c4ccc(F)cc4)ncc3C2)cc1,1040
17,COc1cc(Cn2nc(C)c3cnn(C(C)(C)C)c3c2=O)cc(OC)c1,1070
18,CCc1ccccc1NC(=O)N1CCC(OC2CCN(S(C)(=O)=O)CC2)CC1,770
19,CCOC(=O)c1nnc2c(-c3ccccc3)cnn2c1C,961
20,O=[N+]([O-])c1c(NCCCO)cc(N2CCN(c3ccccn3)CC2)c2nonc12,584
